Reference: patent US20260000642A1 (Tay Therapeutics Limited, priority 2022, published 2026)
Where “and” joins values, the source holds several entries; their conditions need not be identical. Equal values may be shown once.

How the values were obtained:
[1] = system: rat anti-collagen IgG1 antibodies; test: CIA model: rat anti-collagen IgG1 antibodies in serum at day 21; format: in vivo, Lewis rat; details: for levels of rat anti-collagen IgG1 antibodies relative to CIA without treatment: day 21
Method: Blood was additionally collected from groups 1-7 via cardiac puncture following euthanasia on Day 21. Blood from cardiac puncture was placed in a 1.5 mL centrifuge tube without an anticoagulant and centrifuged at 8000 rcf for 15 minutes. Serum was divided into two separate tubes and stored at −75±15° C. One tube was used to analyze IgG1, and the other tube was reserved for additional analyses.
All data measured and recorded was analyzed using SPSS 16.0 software. Groups were compared using one-way ANOVA and significance was set at p<0.05.
UUO model: serum urea = format: in vivo, rat; details: UUO rats; 30 mg/kg; compared with sham and UUO + vehicle
Source text: Serum for blood biochemistry analysis was collected into centrifuge tubes without coagulant four hours after final dosing. Blood plasma samples from group 3 was collected into tubes with K2EDTA four hours after final dosing. At the conclusion of the study (end of the 14-day period), animals were euthanized. Kidney tissue was collected four hours after final dosing. Ligated side kidney was divided into three copies 1/3 fix into 10% formalin for H&E analysis, 1/3 into RNA for PCR analysis of tissue biomarkers Col1a1, TGF-b1, MCP-1, IL-1b, IL-6, IL-17, TNF-a, and Timp1, and 1/3 for hydroxyproline assay analyzed by ELISA. RNA was extracted from tissue using the RNeasy mini kit (Qiagen). RNA concentration was measured using a NanoDrop One Spectrophotometer (ThermoFisher) and converted to cDNA using a High-Capacity RNA-to-cDNA kit (Invitrogen). RT-PCR was performed to measure levels of mRNA of different targets using TaqMan® Gene Expression Master Mix and TaqMan® probe/primer sets on a QuantStudio 6 Real-Time PCR System (ThermoFisher). Fold change in target gene expression was determined using the ΔΔCt method.

[2] = Sprague-Dawley rat pharmacokinetics (IV and PO); format: in vivo; details: rat, plasma; male Sprague-Dawley rats, PO 5 mg/kg (IV 1 mg/kg), cassette mode, Method 1; read-out: PO F (%)
In short: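 Male Sprague-Dawley rats (2 per arm) dosed in cassette (up to 5 compounds) at 1 mg/kg IV and 5 mg/kg PO, formulated in 5% DMSO/40% PEG-400/55% water. Plasma sampled over time, acetonitrile-precipitated with internal standard, and quantified by LC/MS/MS against matrix-matched standards.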

[3] = Plasma stability assay, mouse plasma; format: in vitro ADME; details: 37° C., Method 1 (5 μM)
Method: Exemplary compounds of the disclosure are stable upon incubation in mouse plasma. Stability is expressed as a % remaining after 120 minutes. The experimental methods and results (Table 2) are provided hereinafter.
Plasma Stability Assay, Method 1
From stock solution of compound in 10 mM DMSO, a working solution of 1 mM is prepared by diluting the compound in DMSO. To 398 μL of plasma pre-warmed at 37° C. for 15 minutes), 2 μL of working solution of compound is added, resulting in a final concentration of 5 μM (0.5% DMSO) for the compound. The sample is then incubated at 37° C. Aliquot is withdrawn at specified time-points (0, 15, 30, 60 and 120 mins). The reaction is stopped by addition of 450 μL cold acetonitrile containing internal standard (IS). […] Aliquots of the supernatant is analysed using LC-MS/MS. The percent remaining of the compound at each time point is calculated with respect to the control sample (0 min time-point).
Plasma Stability Assay, Method 2
A working solution of compound (500 μM) is prepared in DMSO (100%). To 735 μL of plasma, 15 μL of working solution of compound is added—resulting in a final concentration of 10 μM (2% DMSO) for the compound. […] The samples are centrifuged and the supernatants analyzed using LC-MS/MS. The percent remaining of the compound at each time point is calculated with respect to the control sample (0 min time-point).

[4] = Pharmacokinetics of Example 101 in Lewis rats (oral, CIA study); format: in vivo, Lewis rat
Method: Blood samples were collected from animals in group 8 on Day 0, and blood samples were collected from group 9 on Day 20. Blood samples from group 8 and group 9 were collected at 0.25, 0.5, 1, 2, 4, 8, 10, 12, 13, and 24-hours following morning administration of their first dose of the compound. The second dose of the compound was administered after the 8-hour collection timepoint. All blood samples were collected at the eye socket and put into tubes containing EDTA-K2 as an anticoagulant and centrifuged at 4° C. at 4,000×g for 5 minutes. Plasma was transferred to a separate tube and stored at −75±15° C. for PK analysis. Pharmacokinetic analyses for Example 101 in Lewis rats were performed as described in Experimental Method B.

[5] = day 0, 10 mg/kg, individual test subjects
[6] = day 20, 10 mg/kg, individual test subjects

In the case of CNC(=O)c1[nH]c(C(=O)NC2CCC2)cc1O[C@@H](C)c1ccccc1 [Example 101, N^5-cyclobutyl-N^2-methyl-3-(1-phenylethoxy)-1H-pyrrole-2,5-dicarboxamide], the “levels of rat anti-collagen IgG1 antibodies relative to CIA without treatment” value ([1]; 1 mg/kg, p<0.05) is reported as “significantly decreased”, the “levels of rat anti-collagen IgG1 antibodies relative to CIA without treatment” value ([1]; 10 mg/kg, p<0.05) is reported as “significantly decreased” and the “levels of rat anti-collagen IgG1 antibodies relative to CIA without treatment” value ([1]; 30 mg/kg, p<0.01) is reported as “significantly decreased”. For the same molecule, the serum urea levels (UUO model: serum urea) was “No significant differences”, the bioavailability [2] was 66% and the “Plasma Stability (% remaining at 120 minutes) Mouse” value [3] was greater than 99%. For the same molecule, the AUClast/D [4, 5] was 820 kg·ng·h/mL/mg and 720 kg·ng·h/mL/mg, the “Plasma concentration at 0.25 h” value [4, 5] was 375 ng/mL and 378 ng/mL and 754 ng/mL and the “Plasma concentration at 24 h” value [4, 5] was 14.3 ng/mL and 35.6 ng/mL and 122 ng/mL. The T1/2 [4, 5] was 2.13 h and 2.54 h and 5.01 h, the Tmax [4, 5] was 10.0 h (2×) and 2.00 h and the “AUCInf, Mean” value ([4]; day 0, 10 mg/kg, mean) was 15371 ng·h/mL. For the same molecule, the “AUClast, Mean” value ([4]; day 0, 10 mg/kg, mean) was 15019 ng·h/mL, the AUClast/D, Mean ([4]; day 0, 10 mg/kg, mean) was 751 kg·ng·h/mL/mg and the “AUC—% Extrap_obs, Mean” value ([4]; day 0, 10 mg/kg, mean) was 2.29%. For the same molecule, the “MRTInf_obs, Mean” value ([4]; day 0, 10 mg/kg, mean) was 8.61 h, the “AUC—% Extrap_obs” value [4, 6] was 0.700% and the Cmax [4, 6] was 1660 ng/mL. For the same molecule, the “Plasma concentration at 8 h” value [4, 6] was 103 ng/mL and 215 ng/mL and 188 ng/mL, the “Plasma concentration at 24 h” value [4, 6] was 16.7 ng/mL and 20.1 ng/mL and 38.1 ng/mL and the AUClast/D, Mean ([4]; day 20, 10 mg/kg, mean) was 528 kg·ng·h/mL/mg. For the same molecule, the “AUC—% Extrap_obs, Mean” value ([4]; day 20, 10 mg/kg, mean) was 1.11%, the “Cmax, Mean” value ([4]; day 20, 10 mg/kg, mean) was 1707 ng/mL and the “MRTInf_obs, Mean” value ([4]; day 20, 10 mg/kg, mean) was 6.66 h.

For C[C@@H]1C[C@H]2[C@@H]3CCC4=CC(=O)C=C[C@]4(C)[C@@]3(F)[C@@H](O)C[C@]2(C)[C@@]1(O)C(=O)CO [dexamethasone], the “Rat Anti-Collagen IgG1 Antibody Con.” value ([1]; day 21 serum, reference group (Dexamethasone or GSK620), before fold 2000 correction, individual animals) was 11.01 units/ml and 2.63 units/ml and 0.65 units/ml and 1.27 units/ml and 5.87 units/ml and 2.28 units/ml and 3.96 units/ml and 3.67 units/ml and the “Final Rat Anti-Collagen IgG1 Antibody Con.” value ([1]; day 21 serum, reference group (Dexamethasone or GSK620), individual animals) was 22019.88 units/ml and 5250.27 units/ml and 1296.14 units/ml and 2541.14 units/ml and 4553.59 units/ml and 7925.50 units/ml and 7346.16 units/ml.
